Data published in ChEMBL document CHEMBL1137069, “Design, synthesis and anti-microbial activity of 1H-pyrazole carboxylates” (2004).
Several values for one entry are separate records, joined by “and”; a condition that tells them apart may be missing. Identical values can stand only once.

What was measured:
Format in all cases: functional
[1] = test system: Fusarium oxysporum; test: Antifungal activity against Fusarium oxysporum was determined at 0.5 mg/mL concentration
[2] = test system: Thanatephorus cucumeris; test: Antifungal activity against Rhizoctonia solani was determined at 0.1 mg/mL concentration
[3] = test system: Curvularia lunata; test: Antifungal activity against Curvularia lunata was measured as mycelial growth at 0.5 mg/mL concentration
[4] = test system: Staphylococcus aureus; test: Antibacterial activity against Staphylococcus aureus was determined at 0.1 mg/mL concentration
[5] = Antifungal activity against Bipolaris oryzae was determined at 0.5 mg/mL concentration
[6] = test system: Enterococcus faecalis; test: Antibacterial activity against […] was determined at 0.1 mg/mL concentration
[7] = test system: Escherichia coli; test: Antibacterial activity against Escherichia coli was determined at 0.5 mg/mL concentration
[8] = test system: Staphylococcus aureus; test: Antibacterial activity against Staphylococcus aureus was measured as area of inhibition zone at 0.1 mg/mL concentration; settings: for zone of inhibition at 100 µg/mL: Staphylococcus aureus
[9] = test system: Enterococcus faecalis; test: Antibacterial activity against […] was measured as area of inhibition zone at 0.1 mg/mL concentration
[10] = test system: Fusarium oxysporum; test: Antifungal activity against Fusarium oxysporum was determined at 0.1 mg/mL concentration
[11] = test system: Alternaria alternata; test: Antifungal activity against Alternaria alternata was measured as mycelial growth at 0.5 mg/mL concentration
[12] = test system: Fusarium oxysporum; test: Antifungal activity against Fusarium oxysporum was measured as mycelial growth at 0.5 mg/mL concentration
[13] = test system: Thanatephorus cucumeris; test: Antifungal activity against Rhizoctonia solani was determined at 0.5 mg/mL concentration
[14] = Antifungal activity against Bipolaris oryzae was measured as mycelial growth at 0.5 mg/mL concentration
[15] = test system: Curvularia lunata; test: Antifungal activity against Curvularia lunata was determined at 0.5 mg/mL concentration
[16] = Antifungal activity against Bipolaris oryzae was measured as mycelial growth at 0.1 mg/mL concentration
[17] = test system: Thanatephorus cucumeris; test: Antifungal activity against Rhizoctonia solani was measured as mycelial growth at 0.1 mg/mL concentration
[18] = test system: Pseudomonas aeruginosa; test: Antibacterial activity against Pseudomonas aeruginosa was measured as area of inhibition zone at 0.1 mg/mL concentration; settings: for zone of inhibition at 100 µg/mL: Pseudomonas aeruginosa
[19] = Antifungal activity against Bipolaris oryzae was determined at 0.1 mg/mL concentration
[20] = test system: Fusarium oxysporum; test: Antifungal activity against Fusarium oxysporum was measured as mycelial growth at 0.1 mg/mL concentration
[21] = test system: Thanatephorus cucumeris; test: Antifungal activity against Rhizoctonia solani was measured as mycelial growth at 0.5 mg/mL concentration
[22] = test system: Staphylococcus aureus; test: Antibacterial activity against Staphylococcus aureus was determined at 0.5 mg/mL concentration
[23] = test system: Enterococcus faecalis; test: Antibacterial activity against […] was determined at 0.5 mg/mL concentration
[24] = test system: Alternaria alternata; test: Antifungal activity against Alternaria alternata was measured as mycelial growth at 0.1 mg/mL concentration
[25] = test system: Curvularia lunata; test: Antifungal activity against Curvularia lunata was measured as mycelial growth at 0.1 mg/mL concentration
[26] = test system: Pseudomonas aeruginosa; test: Antibacterial activity against Pseudomonas aeruginosa was determined at 0.1 mg/mL concentration
[27] = test system: Escherichia coli; test: Antibacterial activity against Escherichia coli was determined at 0.1 mg/mL concentration
[28] = test system: Alternaria alternata; test: Antifungal activity against Alternaria alternata was determined at 0.5 mg/mL concentration
[29] = test system: Curvularia lunata; test: Antifungal activity against Curvularia lunata was determined at 0.1 mg/mL concentration
[30] = test system: Pseudomonas aeruginosa; test: Antibacterial activity against Pseudomonas aeruginosa was determined at 0.5 mg/mL concentration
[31] = test system: Alternaria alternata; test: Antifungal activity against Alternaria alternata was determined at 0.1 mg/mL concentration
[32] = Antibacterial activity against Escherichia coli was measured as area of inhibition zone at 0.1 mg/mL concentration; settings: for zone of inhibition at 100 µg/mL: Escherichia coli

Compound | inhibition at 500 µg/mL [1] | inhibition at 100 µg/mL [2] | Mycelial growth [3] | inhibition at 100 µg/mL [4] | inhibition at 500 µg/mL [5] | inhibition at 100 µg/mL [6] | inhibition at 500 µg/mL [7] | Inhibition Zone [8] | zone of inhibition at 100 µg/mL [9] | inhibition at 100 µg/mL [10] | Mycelial growth [11] | Mycelial growth [12] | inhibition at 500 µg/mL [13] | Mycelial growth [14] | inhibition at 500 µg/mL [15] | Mycelial growth [16] | Mycelial growth [17] | inhibition at 100 µg/mL [19] | Mycelial growth [20] | Mycelial growth [21] | also measured
CCOC(=O)c1cn(-c2ccc([N+](=O)[O-])cc2[N+](=O)[O-])nc1-c1ccccc1F | 41.1% | 0% | 4 cm | 46.7% | 52.2% | 0% | 56.7% | 7.3 cm | 23 mm | 33.3% | 3.4 cm | 5.3 cm | 8.9% | 4.3 cm | 55.6% | 5.7 cm | 9 cm | 36.7% | 6 cm | 8.2 cm | zone of inhibition at 100 µg/mL [8]: 42 mm; zone of inhibition at 100 µg/mL [18]: 0 mm; inhibition at 500 µg/mL [22]: 81.1%; inhibition at 500 µg/mL [23]: 25.6%; Mycelial growth [24]: 4.2 cm; Mycelial growth [25]: 5 cm; inhibition at 100 µg/mL [26]: 0%; inhibition at 100 µg/mL [27]: 20%; inhibition at 500 µg/mL [28]: 62.2%; inhibition at 100 µg/mL [29]: 44.4%; inhibition at 500 µg/mL [30]: 0%; inhibition at 100 µg/mL [31]: 53.3%
CCOC(=O)c1cn(-c2ccc([N+](=O)[O-])cc2[N+](=O)[O-])nc1C | 40% | 0% | 5.3 cm | 58.9% | 5% | 55.6% | 86.7% | 5.3 cm | 76 mm | 30% | 4.8 cm | 5.4 cm | 11.1% | 4.5 cm | 41.1% | 6 cm | 9 cm | 33.3% | 6.3 cm | 8 cm | zone of inhibition at 100 µg/mL [8]: 82 mm; zone of inhibition at 100 µg/mL [18]: 0 mm; inhibition at 500 µg/mL [22]: 91.1%; inhibition at 500 µg/mL [23]: 84.4%; Inhibition Zone [32]: 7.8 cm and 4.6 cm; zone of inhibition at 100 µg/mL [32]: 50 mm; Mycelial growth [24]: 5.5 cm; Mycelial growth [25]: 6.5 cm; inhibition at 100 µg/mL [26]: 0%; inhibition at 100 µg/mL [27]: 51.1%; inhibition at 500 µg/mL [28]: 46.7%; inhibition at 100 µg/mL [29]: 27.8%; inhibition at 500 µg/mL [30]: 0%; inhibition at 100 µg/mL [31]: 38.9%
Cc1nn(-c2ccc([N+](=O)[O-])cc2[N+](=O)[O-])cc1C(=O)OCc1ccccc1 | 52.2% | 12.2% | 5.3 cm | 45.6% | 46.7% | 56.7% | 54.4% | 4.1 cm | 73 mm | 30% | 4.2 cm | 4.3 cm | 27.8% | 4.8 cm | 41.1% | 6 cm | 7.9 cm | 33.3% | 6.3 cm | 6.5 cm | zone of inhibition at 100 µg/mL [8]: 71 mm; Inhibition Zone [18]: 2 cm; zone of inhibition at 100 µg/mL [18]: 17 mm; inhibition at 500 µg/mL [22]: 78.9%; inhibition at 500 µg/mL [23]: 81.1%; Mycelial growth [24]: 5.2 cm; Mycelial growth [25]: 6.4 cm; inhibition at 100 µg/mL [26]: 18.9%; inhibition at 100 µg/mL [27]: 17.8%; inhibition at 500 µg/mL [28]: 53.3%; inhibition at 100 µg/mL [29]: 28.9%; inhibition at 500 µg/mL [30]: 22.2%; inhibition at 100 µg/mL [31]: 42.2%
Cc1nn(-c2ccc([N+](=O)[O-])cc2[N+](=O)[O-])cc1C(=O)OC(C)(C)C | 36.7% | 0% | 5.4 cm | 81.1% | 52.2% | 21.1% | 52.2% | 7.3 cm | 48 mm | 13.3% | 5.1 cm | 5.7 cm | 5.6% | 4.3 cm | 40% | 5.5 cm | 9 cm | 38.9% | 7.8 cm | 8.5 cm | zone of inhibition at 100 µg/mL [8]: 84 mm; zone of inhibition at 100 µg/mL [18]: 0 mm; inhibition at 500 µg/mL [22]: 93.3%; inhibition at 500 µg/mL [23]: 53.3%; Mycelial growth [24]: 6.2 cm; Mycelial growth [25]: 6.7 cm; inhibition at 100 µg/mL [26]: 0%; inhibition at 100 µg/mL [27]: 16.7%; inhibition at 500 µg/mL [28]: 43.3%; inhibition at 100 µg/mL [29]: 25.6%; inhibition at 500 µg/mL [30]: 0%; inhibition at 100 µg/mL [31]: 31.1%
CCOC(=O)c1cn(-c2ccc([N+](=O)[O-])cc2[N+](=O)[O-])nc1CCl | 48.9% | 0% | 5.1 cm | 76.6% | 48.9% | 0% | 51.1% | 8.3 cm | 0 mm | 24.4% | 4.8 cm | 4.6 cm | 5.6% | 4.6 cm | 43.3% | 5.9 cm | 9 cm | 34.4% | 6.8 cm | 8.5 cm | zone of inhibition at 100 µg/mL [8]: 69 mm; zone of inhibition at 100 µg/mL [18]: 0 mm; inhibition at 500 µg/mL [22]: 92.2%; inhibition at 500 µg/mL [23]: 0%; Mycelial growth [24]: 6 cm; Mycelial growth [25]: 6 cm; inhibition at 100 µg/mL [26]: 0%; inhibition at 100 µg/mL [27]: 17.8%; inhibition at 500 µg/mL [28]: 46.7%; inhibition at 100 µg/mL [29]: 33.3%; inhibition at 500 µg/mL [30]: 0%; inhibition at 100 µg/mL [31]: 33.3%
CCOC(=O)c1cn(-c2ccc([N+](=O)[O-])cc2[N+](=O)[O-])nc1-c1ccc(Cl)cc1 | 55.6% | 0% | 4.8 cm | 17.8% | 56.7% | 0% | 52.2% | 3.3 cm and 1.6 cm | 49 mm | 30% | 4.2 cm | 4 cm | 20% | 3.9 cm | 46.7% | 6.6 cm | 9 cm | 26.7% | 6.3 cm | 7.2 cm | zone of inhibition at 100 µg/mL [18]: 0 mm; inhibition at 500 µg/mL [22]: 36.7%; inhibition at 500 µg/mL [23]: 54.4%; Mycelial growth [24]: 5.4 cm; Mycelial growth [25]: 5.8 cm; inhibition at 100 µg/mL [26]: 0%; inhibition at 100 µg/mL [27]: 0%; inhibition at 500 µg/mL [28]: 53.3%; inhibition at 100 µg/mL [29]: 35.6%; inhibition at 500 µg/mL [30]: 0%; inhibition at 100 µg/mL [31]: 40%
CCOC(=O)c1nn(-c2ccc([N+](=O)[O-])cc2[N+](=O)[O-])cc1C=O | 71.1% | 24.4% | 3.5 cm | 85.6% | 74.4% | 83.3% | 97.8% | 7.7 cm | 86 mm | 52.2% | 2.1 cm | 2.6 cm | 53.3% | 2.3 cm | 61.1% | 3.5 cm | 6.8 cm | 61.1% | 4.3 cm | 4.2 cm | zone of inhibition at 100 µg/mL [8]: 88 mm; inhibition at 500 µg/mL [22]: 97.8%; inhibition at 500 µg/mL [23]: 95.6%; Inhibition Zone [32]: 7.5 cm and 8.8 cm; zone of inhibition at 100 µg/mL [32]: 73 mm; Mycelial growth [24]: 3.8 cm; Mycelial growth [25]: 5.6 cm; inhibition at 100 µg/mL [26]: 0%; inhibition at 100 µg/mL [27]: 81.1%; inhibition at 500 µg/mL [28]: 76.6%; inhibition at 100 µg/mL [29]: 37.8%; inhibition at 500 µg/mL [30]: 25.6%; inhibition at 100 µg/mL [31]: 57.8%
